Tested on: bovine tubulin
Assay: In vitro tubulin polymerization assay (turbidity at 340 nm)
Type: biochemical
Conditions: 10 μM compound, 30 minute data point, vs 1% DMSO control
Description: Briefly, tubulin polymerization is a kinetic process that is temperature-dependent and requires GTP and was performed as follows. Soluble tubulin dimers polymerize into microtubules upon warming, and polymerization in vitro correlates with an increase in turbidity (measured at 340 nm). Lyophilized bovine tubulin (HTS Tubulin—97% tubulin, <3% MAPs—Cytoskeleton Inc.) was ressuspended in G-PEM buffer (80 mM PIPES pH 7, 1 mM EGTA, 1 mM MgCl2, 1 mM GTP, 5% glycerol) to a final concentration of 3 mg/ml and kept at 4° C. Compounds in 100× stock solutions in DMSO were dotted to pre-warmed 96-well plates (Corning Costar 3696), the plates were transferred to a 37° C. plate reader (SPECTRAmax Plus, Molecular Devices), cold tubulin was added to the wells, and the plates were shaken for mixing. The absorbance at 340 nm was determined at one minute intervals for 30 minutes. Kinetic curves with 30 points each were collected for each compound, and the dynamic range was between 0 and 0.4 OD units. The percentage inhibition values were calculated using the 30 minute data point and based on control samples (treated with 1% DMSO only). The assay is a modified version of the HTS kit sold by Cytoskeleton (1830 S. Acoma St., Denver, Colo.), adapted to maximize throughput and reduce time, without reduction in dynamic range or sensitivity, while retaining the ability to detect compounds that inhibit or enhance tubulin polymerization.
Tubulin polymerization is a kinetic process that is temperature-dependent and requires GTP. Soluble tubulin dimers polymerize into microtubules upon warming, and polymerization in vitro correlates with an increase in turbidity (measured at 340 nm). Liophilized bovine tubulin (HTS Tubulin—97% tubulin, <3% MAPs—Cytoskeleton Inc.) was ressuspended in G-PEM buffer (80 mM PIPES pH 7, 1 mM EGTA, 1 mM MgCl2, 1 mM GTP, 5% glycerol) to a final concentration of 3 mg/ml and kept at 4° C. Compounds in 100× stock solutions in DMSO were dotted to pre-warmed 96-well plates (Corning Costar 3696), the plates were immediately transferred to a 37° C. plate reader (SPECTRAmax Plus, Molecular Devices), cold tubulin was added to the wells, plates were shaken for mixing, and absorbance at 340 nm was read every minute for 30 minutes. Kinetic curves with 30 points each were collected for each compound, and the dynamic range was between 0 and 0.4 OD units. Percentage inhibition values were calculated using the 30 minute data point, based on control samples (treated with 1% DMSO only). This assay is a modified version of the HTS kit sold by Cytoskeleton, adapted to maximize throughput and reduce time, without reduction in dynamic range or sensitivity, while retaining the ability to detect compounds that inhibit or enhance tubulin polymerization.

c1cnc(NCc2ccc3c(c2)CCO3)c(-c2nnc(Nc3ccc4c(c3)OCO4)[nH]2)c1 [Compound 36, {3-[5-(Benzo[1,3]dioxol-5-ylamino)-4H-[1,2,4]triazol-3-yl]-pyridin-2-yl}-(2,3-dihydro-benzofuran-5-ylmethyl)-amine]
Tubulin Assay: percent inhibition at 10 μM based on 30 minute data: 67%

COc1cccc(Nc2ncc(-c3ccccc3NCc3cc(OC)cc(OC)c3)o2)c1 [Compound 251, {5-[2-(3,5-Dimethoxy-benzylamino)-phenyl]-oxazol-2-yl}-(3-methoxy-phenyl)-amine]
Tubulin Assay: percent inhibition at 10 μM based on 30 minute data: 30%

c1ccc(-c2cnc(Nc3ccc4c(c3)OCCO4)o2)c(OCc2ccncc2)c1 [Compound 253, (2,3-Dihydro-benzo[1,4]dioxin-6-yl)-{5-[2-(pyridin-4-ylmethoxy)-phenyl]-oxazol-2-yl}-amine]
Tubulin Assay: percent inhibition at 10 μM based on 30 minute data: 44%

COc1cccc(-c2nnc(-c3cccnc3NCCc3c[nH]cn3)[nH]2)c1 [Compound 90, [2-(1H-Imidazol-4-yl)-ethyl]-{3-[5-(3-methoxy-phenyl)-4H-[1,2,4]triazol-3-yl]-pyridin-2-yl}-amine]
Tubulin Assay: percent inhibition at 10 μM based on 30 minute data: 25%

COc1ccc(CNc2nnc(-c3ccccc3NCc3ccncc3)[nH]2)cc1 [Compound 113, (4-Methoxy-benzyl)-(5-{2-[(pyridin-4-ylmethyl)-amino]-phenyl}-4H-[1,2,4]triazol-3-yl)-amine]
Tubulin Assay: percent inhibition at 10 μM based on 30 minute data: 24%

COc1cc(Nc2ncccc2-c2nc(Nc3ccc4c(c3)OCO4)n(C)n2)cc(OC)c1 [Compound 65, {3-[5-(Benzo[1,3]dioxol-5-ylamino)-1-methyl-1H-[1,2,4]triazol-3-yl]-pyridin-2-yl}-(3,5-dimethoxy-phenyl)-amine]
Tubulin Assay: percent inhibition at 10 μM based on 30 minute data: 77%

COCCCOc1ccccc1-c1cnc(Nc2cccc(OC)c2)o1 [Compound 258, (3-Methoxy-phenyl)-{5-[2-(3-methoxy-propoxy)-phenyl]-oxazol-2-yl}-amine]
Tubulin Assay: percent inhibition at 10 μM based on 30 minute data: 47%

c1cncc(COc2ccccc2-c2cnc(Nc3ccc4c(c3)OCCO4)o2)c1 [Compound 254, (2,3-Dihydro-benzo[1,4]dioxin-6-yl)-{5-[2-(pyridin-3-ylmethoxy)-phenyl]-oxazol-2-yl}-amine]
Tubulin Assay: percent inhibition at 10 μM based on 30 minute data: 95%

c1cnc(OCc2ccc3c(c2)OCO3)c(-c2nnc(Nc3ccc4c(c3)OCO4)o2)c1 [Compound 208, Benzo[1,3]dioxol-5-yl-{5-[2-(benzo[1,3]dioxol-5-ylmethoxy)-pyridin-3-yl]-[1,3,4]oxadiazol-2-yl}-amine]
Tubulin Assay: percent inhibition at 10 μM based on 30 minute data: 44%

COc1cc(Nc2ncccc2-c2nnc(-c3ccc(S(C)(=O)=O)cc3)o2)cc(OC)c1 [Compound 213, (3,5-Dimethoxy-phenyl)-{3-[5-(4-methanesulfonyl-phenyl)-[1,3,4]oxadiazol-2-yl]-pyridin-2-yl}-amine]
Tubulin Assay: percent inhibition at 10 μM based on 30 minute data: 30%

c1cnc(NCc2ccc3c(c2)OCCO3)c(-c2nnc(-c3ccc4c(c3)OCO4)[nH]2)c1 [Compound 104, [3-(5-Benzo[1,3]dioxol-5-yl-4H-[1,2,4]triazol-3-yl)-pyridin-2-yl]-(2,3-dihydro-benzo[1,4]dioxin-6-ylmethyl)-amine]
Tubulin Assay: percent inhibition at 10 μM based on 30 minute data: 21%

O=[N+]([O-])c1ccccc1-c1nnc(Nc2ccc3c(c2)OCCO3)[nH]1 [Compound 127a, (2,3-Dihydro-benzo[1,4]dioxin-6-yl)-[5-(2-nitro-phenyl)-4H-[1,2,4]triazol-3-yl]-amine]
Tubulin Assay: percent inhibition at 10 μM based on 30 minute data: 22%

CS(=O)(=O)c1ccc(-c2nnc(-c3ccc(C(F)(F)F)cc3NCc3ccncc3)[nH]2)cc1 [Compound 153, {2-[5-(4-Methanesulfonyl-phenyl)-4H-[1,2,4]triazol-3-yl]-5-trifluoromethyl-phenyl}-pyridin-4-ylmethyl-amine]
Tubulin Assay: percent inhibition at 10 μM based on 30 minute data: 54%

c1ccc(-c2cnc(Nc3ccc4c(c3)OCCO4)o2)c(NCc2ccc3c(c2)OCCO3)c1 [Compound 245, (2,3-Dihydro-benzo[1,4]dioxin-6-yl)-(5-{2-[(2,3-dihydro-benzo[1,4]dioxin-6-ylmethyl)-amino]-phenyl}-oxazol-2-yl)-amine]
Tubulin Assay: percent inhibition at 10 μM based on 30 minute data: 93%

COc1cccc(-c2nnc(-c3ccccc3NCc3ccc4[nH]cnc4c3)[nH]2)c1 [Compound 137, (1H-Benzoimidazol-5-ylmethyl)-{2-[5-(3-methoxy-phenyl)-4H-[1,2,4]triazol-3-yl]-phenyl}-amine]
Tubulin Assay: percent inhibition at 10 μM based on 30 minute data: 28%

COc1cccc(Nc2nnc(-c3cccnc3NCc3ccc4c(c3)OCCO4)[nH]2)c1 [Compound 35, (2,3-Dihydro-benzo[1,4]dioxin-6-ylmethyl)-{3-[5-(3-methoxy-phenylamino)-4H-[1,2,4]triazol-3-yl]-pyridin-2-yl}-amine]
Tubulin Assay: percent inhibition at 10 μM based on 30 minute data: 66%

CN(C)c1ccc(-c2nnc(Nc3ccc4c(c3)OCCO4)o2)c(NCc2ccncc2)c1 [Compound 231]
Tubulin Assay: percent inhibition at 10 μM based on 30 minute data: 28%

COc1ccc(Nc2nnc(-c3cccnc3Nc3ccc4cn[nH]c4c3)[nH]2)cc1 [Compound 19, (1H-Indazol-6-yl)-{3-[5-(4-methoxy-phenylamino)-4H-[1,2,4]triazol-3-yl]-pyridin-2-yl}-amine]
Tubulin Assay: percent inhibition at 10 μM based on 30 minute data: 20%

c1cnc(NCC2COCCO2)c(-c2nnc(Nc3ccc4c(c3)OCO4)[nH]2)c1 (stereo not drawn) [Compound 47, {3-[5-(Benzo[1,3]dioxol-5-ylamino)-4H-[1,2,4]triazol-3-yl]-pyridin-2-yl}-[1,4]dioxan-2-ylmethyl-amine]
Tubulin Assay: percent inhibition at 10 μM based on 30 minute data: 24%

COc1cc(CNc2ccccc2-c2nnc(-c3cccc(OC(F)(F)F)c3)[nH]2)cc(OC)c1 [Compound 143, (3,5-Dimethoxy-benzyl)-{2-[5-(3-trifluoromethoxy-phenyl)-4H-[1,2,4]triazol-3-yl]-phenyl}-amine]
Tubulin Assay: percent inhibition at 10 μM based on 30 minute data: 46%

FC(F)(F)c1ccc(-c2nnc(Nc3ccc4c(c3)OCO4)[nH]2)c(NCc2cccnc2)c1 [Compound 125, Benzo[1,3]dioxol-5-yl-(5-{2-[(pyridin-3-ylmethyl)-amino]-4-trifluoromethyl-phenyl}-4H-[1,2,4]triazol-3-yl)-amine]
Tubulin Assay: percent inhibition at 10 μM based on 30 minute data: 96%

Fc1cccc(CNc2ncccc2-c2nnc(Nc3ccc4c(c3)OCO4)o2)c1 [Compound 171, {3-[5-(Benzo[1,3]dioxol-5-ylamino)-[1,3,4]oxadiazol-2-yl]-pyridin-2-yl}-(3-fluoro-benzyl)-amine]
Tubulin Assay: percent inhibition at 10 μM based on 30 minute data: 91%

COc1ccc(Nc2nnc(-c3ccccc3NCc3ccncc3)[nH]2)cc1 [Compound 116, (4-Methoxy-phenyl)-(5-{2-[(pyridin-4-ylmethyl)-amino]-phenyl}-4H-[1,2,4]triazol-3-yl)-amine]
Tubulin Assay: percent inhibition at 10 μM based on 30 minute data: 20%

c1ccc(-c2nnc(Nc3ccc4c(c3)OCCO4)o2)c(NCc2cncnc2)c1 [Compound 226, (2,3-Dihydro-benzo[1,4]dioxin-6-yl)-(5-{2-[(pyrimidin-5-ylmethyl)-amino]-phenyl}-[1,3,4]oxadiazol-2-yl)-amine]
Tubulin Assay: percent inhibition at 10 μM based on 30 minute data: 94%

— US20090048301A1 (IMCLONE SYSTEMS INCORPORATED, priority 2003, published 2009)
